Data set [1] relates to stromal cells in the chorionic membrane. Kind of data set: Uptake of FITC-trehalose by native cells in fresh chorionic membrane. In kind it is cell-based, human. As to conditions: 2.5 mM FITC-trehalose in 0.5M trehalose, room temperature, 1 hour. The method, then: (§1) To further investigate the protective mechanism that leads to viable lyophilized placental membrane compositions, fresh amniotic and chorionic membranes were incubated in 2.5 mM FITC-trehalose in a 0.5M trehalose solution at room temperature for 1 hour and then thoroughly washed to remove excess trehalose. […] Longer incubation times with higher concentrations of trehalose at an elevated temperature could increase diffusion of trehalose into these cells and may promote enhanced cell survival following lyophilization.

The test system of data set [2] is chorionic stromal cells in suspension. Kind of data set: Uptake of FITC-trehalose by chorionic stromal cells in suspension. In kind it is cell-based, human. The note with it: 4 hours at room temperature. The protocol: Previous reports of lyophilization of cells in suspension have used trehalose as a lyoprotectant. To confirm that placental cells can uptake trehalose, cells were fully isolated from chorionic membranes and added to a well-plate. To the cell suspension, a commercially available fluorescently tagged trehalose, FITC-trehalose, was added and allowed to incubate for 4 hours at room temperature. Cells were washed multiple times to remove any remaining free FITC-trehalose.

Data set [3] has as its system chondrocytes embedded in bovine cartilage matrix. Kind of data set: Uptake of FITC-trehalose by chondrocytes embedded in bovine cartilage matrix. As to conditions: intact bovine cartilage, 4 hours. The class given is cell-based. The method, then:
The same lyophilization methods effective for placental membrane and skin allograft compositions were used for cartilage graft compositions. First, intact pieces of bovine cartilage were incubated with FITC-trehalose for 4 hours and washed thoroughly to remove excess trehalose. […] Intact bovine cartilage, intact bovine cartilage with 1 mm pores, and micronized bovine cartilage were soaked in a trehalose solution for 4 hours at 37 C with agitation prior to lyophilization in the same trehalose solution.

The subject of data set [4] is epithelial cells in the amniotic membrane. Kind of data set: Uptake of FITC-trehalose by native cells in fresh amniotic membrane. In kind it is cell-based, human. As to conditions: 2.5 mM FITC-trehalose in 0.5M trehalose, room temperature, 1 hour. The method, then:
as §1

As to FITC-trehalose, the uptake of trehalose result is given as “readily uptake trehalose” in data set [1], “uptake trehalose at low levels” in data set [2], “some trehalose can be taken up by chondrocytes” in data set [3] and “readily uptake trehalose” in data set [4].
